According to patent US9131677B2, “Organ preservation solution” (University Court of the University of Edinburgh, priority 2006, dated 2015):

Key:
[1] = test system: aortic rings; experiment: Cold ischaemic storage of aortic rings in UW solutions followed by myograph reoxygenation; design: species or system Wistar rats; conditions: for endothelium-dependent relaxation (ACh) vs GSH-free UW: GSH 3 mM, GSHMEE 3 mM
Protocol: Animal care and experimental protocols were performed in accordance with the Home Office Guidance in the Operation of Animals (Scientific Procedures) Act 1986, UK. Adult male Wistar rats weighing 300-450 g were kept in a temperature-controlled environment with a 12 h light-dark cycle, and allowed free access to water and standard diet. University of Wisconsin solution was prepared according to standard protocol: Potassium lactobionate 100 mM, KH2PO4 25 mM, MgSO4 5 mM, raffinose 30 mM, adenosine 5 mM, allopurinol 1 mM, dexamethasone 16 mg/L, insulin 40 U/L, penicillin 200 000 U/L and EDTA 0.03 mM at pH 7.4. The EDTA was added in order to help protect GSNO against metal-ion catalysed decomposition. The solution was bubbled with argon gas for 1 hour to mimic hypoxia. Oxygen levels were confirmed using an oxygen electrode (Apollo 4000 integrated free radical analyser, World Precision Instruments Inc. USA). Bubbling for 30 minutes depleted >90% of oxygen in solution. Following cervical dislocation, laparotomy was performed and the aorta dissected with clearance of periaortic fat and connective tissue. Vessels were divided into 3-5 mm aortic rings with care taken not to stretch or damage the vessels. Aortic rings were subjected to cold ischaemic storage (4° C. for 1 or 48 hours) in sealed containers filled with hypoxic control (UW without GSH) solution; UW with GSH (3 mM); UW with glutathione monoethyl ester ([…]; 3 mM) or UW with S-nitrosated glutathione (GSNO; 100 μM). After storage, aortic rings were suspended between two stainless steel supports in a myograph (700MO, Danish Myo, Aarhus, Denmark) and reoxygenated in 10 ml organ baths containing Krebs buffer solution (mM): […] Resting tensions of 1.5 g were applied to all rings prior to equilibration (30 minutes). Following equilibration, all vessels were exposed to Krebs buffer containing a high concentration of potassium (60 mM) three times to assess tissue viability and to provide a reference maximum contraction for subsequent data analysis. Each response was followed by a washout. A concentration-response curve to the α1 adrenoceptor agonist, L-phenylephrine (PE; 10^-8M-3×10^-5M) was then constructed and used to identify the concentration of PE required to generate 80% maximal contraction (EC80) for subsequent vasodilator studies. Upon establishing stable contractions, cumulative concentration-response curves to the endothelium-dependent vasodilator, acetylcholine (ACh; 10^-9-10^-5M) were constructed in all preparations. Only one concentration-response curve was obtained per tissue. A further submaximal PE contraction was elicited and the NO synthase inhibitor, N^ω-nitro-L-arginine methyl ester (L-NAME) was applied to inhibit endogenous NO production and to determine the vasodilatory effect of endothelium-derived NO under basal (unstimulated) conditions. Subsequently, the NO scavenger, carboxy-PTIO (cPTIO; 1 mM), was added in order to establish the contribution of NOS-independent NO to any vasodilator tone existing under basal conditions.

[2] = test system: Human umbilical vein endothelial cells (HUVEC); experiment: Endothelial cell viability assay (trypan blue exclusion); conditions: for HUVEC cell viability vs control: 37° C., absence of any oxidants (unstressed); for HUVEC cell viability vs control / HUVEC cell survival in the presence of menadione: supplemented UW
Protocol: Human umbilical vein endothelial cells (HUVEC) were seeded in 162 ml flasks (Dulbecco's modified Eagle's medium 37° C., 5% CO2). Cells were cultured to confluence and transferred to 6-well culture dishes containing phosphate buffered saline (control), UW without GSH, UW+GSH (3 mM), UW+GSH-MEE (3 mM) or UW+GSNO for 24 h (37° C.) in the absence of any oxidants or in the presence of a hydroxyl radical generator (menadione; 10 μM), the superoxide generating system, xanthine+xanthine oxidase (5 μM; 1 mU/ml) or the oxidant species H2O2 (100 μM). Cell viability after 24 h incubations was assessed using a standard trypan blue exclusion assay.

[3] = Decomposition of GSNO in storage, absorbance at 339 nm; type: physicochemical
Protocol: The freezing point for DMSO is ˜15° C., so these samples were effectively “frozen” for the duration of the experiment, perhaps contributing to the stability of GSNO under these conditions. The apparent depression of absorbance at time zero in the DMSO sample is most likely attributable to incomplete dissolution of the material when the first measurement was taken.

[4] = after 48 h cold ischaemia, GSNO 100 μM

SMILES | endothelium-dependent relaxation (ACh) vs GSH-free UW [1, 4] | HUVEC cell viability vs control ([2]; 24 h) | HUVEC cell survival in the presence of menadione ([2]; 24 h, menadione 10 μM) | contraction on addition of L-NAME to precontracted tissues vs standard UW ([1]; after 48 h cold ischaemia) | further results
N[C@@H](CCC(=O)N[C@@H](CS)C(=O)NCC(=O)O)C(=O)O [GSH, Glutathione] | significantly poorer endothelium-dependent relaxation | significantly reduced viability | significantly enhanced cell survival | – | –
CCOC(=O)CNC(=O)[C@H](CS)NC(=O)CC[C@H](N)C(=O)O [GSH-MEE, glutathione monoethyl ester] | no significant difference | significantly reduced viability | significantly enhanced cell survival | significantly lesser contraction | –
N[C@@H](CCC(=O)N[C@@H](CSN=O)C(=O)NCC(=O)O)C(=O)O [GSNO, S-nitrosoglutathione] | no significant difference | not significantly different from control | ineffective | significantly lesser contraction | contraction on further addition of NO scavenger cPTIO vs standard UW ([1]; after 1 h cold ischaemia): significantly greater contraction; contraction on further addition of cPTIO vs standard UW ([1]; after 48 h cold ischaemia): significantly greater contraction; maximal contractions to PE vs GSH-free UW [1, 4]: significantly depressed maximal contractions; half-life at 100 µM ([3]; modified UW solution, modified UW (containing EDTA but excluding GSH), refrigerator in the dark at 4-6° C.): ~144 h; decomposition of GSNO in 100% DMSO ([3]; same time period, dark, 4-6° C., samples effectively frozen): did not show any significant decomposition
OO [H2O2] | – | – | – | – | effect of oxidant on HUVEC cell survival ([2]; 24 h, X/XO 5 μM, 1 mU/ml, H2O2 100 μM): substantial cell death
CC1=CC(=O)c2ccccc2C1=O [menadione] | – | – | – | – | cells surviving oxidant treatment under control conditions ([2]; 24 hr treatment, menadione 10 μM): less than 5%
